Article PMC8078842 (PLoS Neglected Tropical Diseases, 2021)

Assays:
Delta2glutamate receptor = conditions: Voltage independent; cited from earlier work
[1] = test system: NMDA (Ionotropic) glutamate receptor; conditions: Voltage dependent; cited from earlier work
Dopamine, D2s (h) = target: T1, Dopamine, D2s (h) (Homo sapiens, UniProt P14416); test: CNS side effect panel, [^3H]-Raclopride; type: binding; conditions: pentamidine 1.0E^-5 M
T1 construct: purchased Perkin-Elmer Science Discovery Systems (NovaScreen), customised CNS screening panel

[2] = test system: Decarboxylase, Glutamic Acid; test: CNS side effect panel, [^14C]Glutamic acid; type: biochemical; conditions: pentamidine 1.0E^-5 M
[3] = test system: Glutamate, MK-801 Site (Ionotropic); test: CNS side effect panel, [^3H]MK-801; type: binding; conditions: pentamidine 1.0E^-5 M

T1 sequence (P14416 1-414 isoform P14416-2): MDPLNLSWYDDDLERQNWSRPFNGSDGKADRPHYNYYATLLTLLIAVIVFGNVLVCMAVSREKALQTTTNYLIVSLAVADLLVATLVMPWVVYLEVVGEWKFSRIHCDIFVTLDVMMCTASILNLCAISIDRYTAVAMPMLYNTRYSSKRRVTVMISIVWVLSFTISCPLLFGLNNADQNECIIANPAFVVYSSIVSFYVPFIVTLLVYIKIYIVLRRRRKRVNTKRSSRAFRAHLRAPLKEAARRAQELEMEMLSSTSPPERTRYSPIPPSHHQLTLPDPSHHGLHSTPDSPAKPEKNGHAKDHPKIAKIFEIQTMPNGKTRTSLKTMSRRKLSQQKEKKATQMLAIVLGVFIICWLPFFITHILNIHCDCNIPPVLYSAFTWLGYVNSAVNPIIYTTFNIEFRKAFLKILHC

N=C(N)c1ccc(OCCCCCOc2ccc(C(=N)N)cc2)cc1 [Pentamidine, 1,5-bis-4ρ-amidinophenoxypentane]
Affinity (Delta2glutamate receptor): 5 µM | Affinity [1]: 0.2 µM | Percent Inhibition (Dopamine, D2s (h)): 20.12% | Percent Inhibition [2]: -1.41% | Percent Inhibition [3]: 6.25%
